Drawing on patent publication US9409884B2 (Rigel Pharmaceuticals, Inc., priority 2012, dated 2016), this text covers EC50 for 19 compounds.

The target in the assay is AMPK. As to the kind of experiment: AMPK activation, enzyme-linked immunosorbent assay. It counts as biochemical. To be noted: Table 13, compounds of Table 6. In short, it runs like this:
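AMPK activation by test compounds was measured by enzyme-linked immunosorbent assay.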
With `O=C(NC1CCN(Cc2ccc(OC(F)(F)F)cc2)CC1)c1cc2cc(C(=O)N3CCC(Oc4ccc(S(=O)(=O)C(F)(F)F)cc4)CC3)ccc2o1` [Compound 6-136, N-(1-(4-(trifluoromethoxy)benzyl)piperidin-4-yl)-5-(4-(4-(trifluoromethylsulfonyl)phenoxy)piperidine-1-carbonyl)benzofuran-2-carboxamide], the EC50 (usually the concentration needed to bring the measured effect to its halfway point) is under 0.1 µM.
In turn, `COc1ccc(CN2CCC(NC(=O)c3cc4cc(C(=O)N5CCC(Oc6ccc(S(=O)(=O)C(F)(F)F)cc6)CC5)ccc4o3)CC2)cc1F` [Compound 6-137, N-(1-(3-fluoro-4-methoxybenzyl)piperidin-4-yl)-5-(4-(4-(trifluoromethylsulfonyl)phenoxy)piperidine-1-carbonyl)benzofuran-2-carboxamide] registered a 50% effective concentration (EC50) of under 0.1 µM.
Take `CS(=O)(=O)c1ccc(CN2CCN(C(=O)c3ccc4oc(C(=O)NC5CCN(Cc6ccc(OC(F)(F)F)c(F)c6)CC5)cc4c3)CC2)cc1` [Compound 6-138, N-(1-(3-fluoro-4-(trifluoromethoxy)benzyl)piperidin-4-yl)-5-(4-(4-(methylsulfonyl)benzyl)piperazine-1-carbonyl) benzofuran-2-carboxamide]: the EC50 is under 0.1 µM.
Next, `O=C(NC1CCN(Cc2ccc(OC(F)(F)F)c(F)c2)CC1)c1cc2cc(C(=O)N3CCN(c4cccc(C(F)(F)F)c4)CC3)ccc2o1` [Compound 6-139, N-(1-(3-fluoro-4-(trifluoromethoxy)benzyl)piperidin-4-yl)-5-(4-(3-(trifluoromethyl)phenyl)piperazine-1-carbonyl) benzofuran-2-carboxamide]: under 0.1 µM; `O=C(NC1CCN(Cc2ccc(OC(F)(F)F)cc2)CC1)c1cc2cc(C(=O)N3CCN(c4cccc(C(F)(F)F)c4)CC3)ccc2o1` [Compound 6-140, N-(1-(4-(trifluoromethoxy)benzyl)piperidin-4-yl)-5-(4-(3-(trifluoromethyl)phenyl)piperazine-1-carbonyl) benzofuran-2-carboxamide]: under 0.1 µM; `COc1ccc(CN2CCC(NC(=O)c3cc4cc(C(=O)N5CCN(Cc6cccc(S(C)(=O)=O)c6)CC5)ccc4o3)CC2)cc1F` [Compound 6-141, N-(1-(3-fluoro-4-methoxybenzyl)piperidin-4-yl)-5-(4-(3-(methylsulfonyl)benzyl)piperazine-1-carbonyl) benzofuran-2-carboxamide]: under 0.1 µM.
Next, `COc1ccc(CN2CCC(NC(=O)c3cc4cc(C(=O)N5CCN(Cc6cccc(S(C)(=O)=O)c6)CC5)ccc4n3C)CC2)cc1F` [Compound 6-142, N-(1-(3-fluoro-4-methoxybenzyl)piperidin-4-yl)-1-methyl-5-(4-(3-(methylsulfonyl)benzyl)piperazine-1-carbonyl)-1H-indole-2-carboxamide]: under 0.1 µM.
As for `COc1ccc(CN2CCC(NC(=O)c3cc4cc(C(=O)N5CCN(Cc6ccc(Br)c(S(C)(=O)=O)c6)CC5)ccc4o3)CC2)cc1F` [Compound 6-143, 5-(4-(4-bromo-3-(methylsulfonyl)benzyl)piperazine-1-carbonyl)-N-(1-(3-fluoro-4-methoxybenzyl)piperidin-4-yl)benzofuran-2-carboxamide], the concentration for a half-maximal effect (EC50) was under 0.1 µM.
The compound `CS(=O)(=O)c1ccc(CN2CCN(C(=O)c3ccc4oc(C(=O)NC5CCN(Cc6ccc(C(F)(F)F)cc6)CC5)cc4c3)CC2)cc1` [Compound 6-144, 5-(4-(4-(methylsulfonyl)benzyl)piperazine-1-carbonyl)-N-(1-(4-(trifluoromethyl)benzyl)piperidin-4-yl)benzofuran-2-carboxamide] yielded a concentration giving a half-maximal response (EC50) of under 0.1 µM.
To `CS(=O)(=O)c1ccc(CN2CCN(C(=O)c3ccc4oc(C(=O)NC5CCN(Cc6ccc(C#N)c(F)c6)CC5)cc4c3)CC2)cc1` [Compound 6-145, N-(1-(4-cyano-3-fluorobenzyl)piperidin-4-yl)-5-(4-(4-(methylsulfonyl)benzyl)piperazine-1-carbonyl) benzofuran-2-carboxamide] belongs under 0.1 µM.
Take `CS(=O)(=O)c1ccc(CN2CCN(C(=O)c3ccc4oc(C(=O)NC5CCN(Cc6cccc(OC(F)(F)F)c6)CC5)cc4c3)CC2)cc1` [Compound 6-146, 5-(4-(4-(methylsulfonyl)benzyl)piperazine-1-carbonyl)-N-(1-(3-(trifluoromethoxy)benzyl)piperidin-4-yl)benzofuran-2-carboxamide]: the 50% effective concentration (EC50) was under 0.1 µM.
`CS(=O)(=O)c1ccc(CN2CCN(C(=O)c3ccc4oc(C(=O)NC5CCN(Cc6cccc(C(F)(F)F)c6)CC5)cc4c3)CC2)cc1` [Compound 6-147, 5-(4-(4-(methylsulfonyl)benzyl)piperazine-1-carbonyl)-N-(1-(3-(trifluoromethyl)benzyl)piperidin-4-yl)benzofuran-2-carboxamide] displayed an EC50 of under 0.1 µM.
Next, `CS(=O)(=O)c1ccc(CN2CCN(C(=O)c3ccc4oc(C(=O)NC5CCN(Cc6ccc(-n7cccn7)cc6)CC5)cc4c3)CC2)cc1` [Compound 6-148, N-(1-(4-(1H-pyrazol-1-yl)benzyl)piperidin-4-yl)-5-(4-(4-(methylsulfonyl)benzyl)piperazine-1-carbonyl) benzofuran-2-carboxamide]: under 0.1 µM; `CS(=O)(=O)c1cccc(CN2CCN(C(=O)c3ccc4oc(C(=O)NC5CCN(Cc6ccc(C(F)(F)F)cc6)CC5)cc4c3)CC2)c1` [Compound 6-149, 5-(4-(3-(methylsulfonyl)benzyl)piperazine-1-carbonyl)-N-(1-(4-(trifluoromethyl)benzyl)piperidin-4-yl)benzofuran-2-carboxamide]: under 0.1 µM; `CS(=O)(=O)c1cccc(CN2CCN(C(=O)c3ccc4oc(C(=O)NC5CCN(Cc6ccc(C#N)c(F)c6)CC5)cc4c3)CC2)c1` [Compound 6-150, N-(1-(4-cyano-3-fluorobenzyl)piperidin-4-yl)-5-(4-(3-(methylsulfonyl)benzyl)piperazine-1-carbonyl) benzofuran-2-carboxamide]: under 0.1 µM.
On to `CS(=O)(=O)c1cccc(CN2CCN(C(=O)c3ccc4oc(C(=O)NC5CCN(Cc6cccc(OC(F)(F)F)c6)CC5)cc4c3)CC2)c1` [Compound 6-151, 5-(4-(3-(methylsulfonyl)benzyl)piperazine-1-carbonyl)-N-(1-(3-(trifluoromethoxy)benzyl)piperidin-4-yl)benzofuran-2-carboxamide], for which the EC50 is under 0.1 µM.
Turning to `CS(=O)(=O)c1cccc(CN2CCN(C(=O)c3ccc4oc(C(=O)NC5CCN(Cc6ccc(-n7cccn7)cc6)CC5)cc4c3)CC2)c1` [Compound 6-153, N-(1-(4-(1H-pyrazol-1-yl)benzyl)piperidin-4-yl)-5-(4-(3-(methylsulfonyl)benzyl)piperazine-1-carbonyl) benzofuran-2-carboxamide], the half-maximal effective concentration (EC50) is under 0.1 µM.
To `COc1ccc(CN2CCC(NC(=O)c3cc4cc(C(=O)N5CCN(Cc6ccc(S(C)(=O)=O)cc6)CC5)ccc4o3)CC2)cc1F` [Compound 6-154, N-(1-(3-fluoro-4-methoxybenzyl)piperidin-4-yl)-5-(4-(4-(methylsulfonyl)benzyl)piperazine-1-carbonyl) benzofuran-2-carboxamide] belongs under 0.1 µM; to `CS(=O)(=O)c1ccc(OC2CCN(C(=O)c3ccc4oc(C(=O)N[C@@H]5CCN(Cc6ccc(OC(F)(F)F)cc6)C[C@H]5F)cc4c3)CC2)cc1` [Compound 6-155, N-((3,4-trans)-3-fluoro-1-(4-(trifluoromethoxy)benzyl)piperidin-4-yl)-5-(4-(4-(methylsulfonyl)phenoxy)piperidine-1-carbonyl) benzofuran-2-carboxamide], under 0.1 µM.
